Where two headings read alike, the source gives them in different places. Blank lines part the entries; values can stand above or below the compound they belong to.
Key:
Assay in all cases: Fluorimetric PPyrPM assay for group 1B PLA2 inhibition (Example 12)
Format in all cases: biochemical
[1] = biological target: T1, human group 1B PLA2 (hps PLA2) (Homo sapiens, UniProt P04054)
T1 construct: made in house; host or cells: E. coli
Description: (§1) In this example, a fluorimetric assay procedure was used to evaluate the indole and indole-related compounds of the invention as inhibitors of group 1B phospholipase A2 (PLA2) from human, mouse and porcine. A description of this assay is found in articles: Leslie, C C and Gelb, M H (2004) Methods in Molecular Biology “Assaying phospholipase A2 activity”, 284:229-242; Singer, A G, et al. (2002) Journal of Biological Chemistry “Interfacial kinetic and binding properties of the complete set of human and mouse groups I, II, V, X, and XII secreted phospholipases A2”, 277:48535-48549, which are incorporated herein as references.
(§2) In general, this assay used a phosphatidylmethanol substrate with a pyrene fluorophore on the terminal end of the sn-2 fatty acyl chain. Without being bound by theory, close proximity of the pyrenes from neighboring phospholipids in a phospholipid vesicle caused the spectral properties to change relative to that of monomeric pyrene. Bovine serum albumin was present in the aqueous phase and captured the pyrene fatty acid when it is liberated from the glycerol backbone owing to the PLA2-catalyzed reaction. However, a potent inhibitor can inhibit the liberation of pyrene fatty acid from the glycerol backbone. […] The effect of a given inhibitor and inhibitor concentration on human, mouse and porcine phospholipase was determined.
(§3) Recombinant human and mouse group 1B PLA2 were cloned and expressed in E. coli as insoluble inclusion bodies. The inclusion bodies were isolated and purified by sonicating cell pellet in lysis buffer (50 mM Tris-HCl pH 7.0, 250 mM NaCl, 0.5% Triton 100), centrifugation at 12,000×g, and washing three times in washing buffer (20 mM Tris-HCl pH 7.0, 250 mM NaCl, 0.5% Triton 100). Then the inclusion bodies were dissolved in dissolving buffer (50 mM Tris-HCl pH 7.0, 250 mM NaCl, 6 M Guanidine-HCl, 1 mM DTT) and dialyzed four times against 10 volumes of refolding buffer (20 mM Tris-HCl pH 7.0, 250 mM NaCl, 0.5M Guanidine-HCl, 5% (w/w) Glycerol, 2 mM reduced glutathione and 0.4 mM oxidized glutathione) at 4° C. The correctly refolded proteins were concentrated using Amicon Stirred cell under nitrogen pressure (<70 psi) and dialyzed against 10 volumes of 50 mM Tris-HCl pH 7.0, 250 mM NaCl and 5% (w/w) glycerol. Human and mouse group 1B PLA2 were further purified by High S ion exchange and gel filtration columns.
(§4) The following reagents and equipments were obtained from commercial vendors: • 1. Porcine group 1B phospholipase A2 • 2. 1-hexadecanoyl-2-(1-pyrenedecanoyl)-sn-glycero-3-phosphomethanol (PPyrPM) • 3. Bovine serum albumin (BSA, fatty acid free) • 4. 2-Amino-2-(hydroxymethyl)-1,3-propanediol, hydrochloride (Tris-HCl) • 5. Calcium chloride • 6. Potassium chloride • 7. Solvents: DMSO, toluene, isopropanol, ethanol • 8. Molecular Devices SPECTRAmax microplate spectrofluorometer • 9. Costar 96 well black wall/clear bottom plate
(§5) The following reagents were prepared: • 10. PPyrPM stock solution (1 mg/ml) in toluene:isopropanol (1:1) • 11. ILY104 inhibitor stock solution (10 mM) in DMSO • 12. 3% (w/v) bovine serum albumin (BSA) • 13. Stock buffer: 50 mM Tris-HCl, pH 8.0, 50 mM KCl and 1 mM CaCl2
(§6) The following procedure was performed to evaluate the inhibitory potency of the evaluated compounds. • 14. An assay buffer was prepared by adding 3 ml 3% BSA to 47 ml stock buffer. • 15. Solution A was prepared by adding serially diluted inhibitors to the assay buffer. Inhibitors were three-fold diluted in stock buffer in a series of 8 from 15 uM. • 16. Solution B was prepared by adding human, mouse or porcine PLA2 to the assay buffer. This solution was prepared immediately before use to minimize enzyme activity loss. • 17. Solution C was prepared by adding 30 ul PPyrPM stock solution to 90 ul ethanol, and then all 120 ul of PPyrPM solution was transferred drop-wise over approximately 1 min to the continuously stirring 8.82 ml assay buffer to form a final concentration of 4.2 uM PPyrPM vesicle solution. • 18. […]

[2] = biological target: T2, mouse group 1B PLA2 (mps PLA2) (Mus musculus, UniProt Q9Z0Y2)
T2 construct: made in house; host or cells: E. coli
T2 sequence (Q9Z0Y2 23-146): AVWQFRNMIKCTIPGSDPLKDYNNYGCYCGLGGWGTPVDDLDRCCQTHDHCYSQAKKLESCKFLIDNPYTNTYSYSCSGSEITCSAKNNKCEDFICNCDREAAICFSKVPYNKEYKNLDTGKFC
Description: as §1, §2, §3, §4, §5, §6

[3] = biological target: T3, porcine group 1B PLA2 (pps PLA2) (Sus scrofa, UniProt P00592); details: porcine pancreas secreted PLA2; read-out: ILYPSA IC50 pps PLA2
T3 construct: purchased
T3 sequence (P00592 23-146): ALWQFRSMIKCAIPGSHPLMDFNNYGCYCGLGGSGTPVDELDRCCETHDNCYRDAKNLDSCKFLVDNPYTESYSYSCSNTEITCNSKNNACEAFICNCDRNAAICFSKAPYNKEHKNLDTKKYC
Description: as §1, §2, §4, §5
The following procedure was performed to evaluate the inhibitory potency of the evaluated compounds. • 14. An assay buffer was prepared by adding 3 ml 3% BSA to 47 ml stock buffer. • 15. Solution A was prepared by adding serially diluted inhibitors to the assay buffer. Inhibitors were three-fold diluted in stock buffer in a series of 8 from 15 uM. • 16. Solution B was prepared by adding human, mouse or porcine PLA2 to the assay buffer. This solution was prepared immediately before use to minimize enzyme activity loss. • 17. Solution C was prepared by adding 30 ul PPyrPM stock solution to 90 ul ethanol, and then all 120 ul of PPyrPM solution was transferred drop-wise over approximately 1 min to the continuously stirring 8.82 ml assay buffer to form a final concentration of 4.2 uM PPyrPM vesicle solution. • 18. The SPECTRAmax microplate spectrofluorometer was set at 37° C. • 19. 100 ul of solution A was added to each inhibition assay well of a costar 96 well black wall/clear bottom plate • 20. 100 ul of solution B was added to each inhibition assay well of a costar 96 well black wall/clear bottom plate. • 21. 100 ul of solution C was added to each inhibition assay well of a costar 96 well black wall/clear bottom plate. • 22. The plate was incubated inside the spectrofluorometer chamber for 3 min. • 23. The fluorescence was read using an excitation of 342 nm and an emission of 395 nm.
Evaluated compounds were tested in duplicate and their values were averaged to plot the inhibition curve and calculate the IC50. Compared to uninhibited controls, lower fluorescent signal at an emission of 395 nm in test reactions evidenced inhibition of PLA2. […] Compounds initially found to be active were repeated to confirm their inhibitory activity. […]

[4] = human pancreas secreted PLA2, read-out: ILYPSA IC50 hps PLA2
[5] = mouse pancreas secreted PLA2, read-out: ILYPSA IC50 mps PLA2

T1 sequence (P04054 23-148): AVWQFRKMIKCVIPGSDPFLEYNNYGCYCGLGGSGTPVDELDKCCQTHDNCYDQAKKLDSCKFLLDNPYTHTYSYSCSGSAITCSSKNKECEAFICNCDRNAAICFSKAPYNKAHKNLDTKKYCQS

Structure (SMILES): Cc1c(C(=O)C(N)=O)c2c(OCC(=O)O)ccc([N+](=O)[O-])c2n1Cc1ccccc1 [ILY-IV-29]
IC50 [1, 4]: 1290 nM
IC50 [2, 5]: 330 nM
IC50 [3]: 20 nM

Structure (SMILES): CCCCCCCCn1c(C)c(C(=O)C(N)=O)c2c(OCC(=O)O)nccc21 [ILY-II-8, (3-Aminooxalyl-2-methyl-1-octyl-1H-pyrrolo[3,2-c]pyridin-4-yloxy)-acetic acid]
IC50 [1, 4]: 270 nM
IC50 [2, 5]: 120 nM
IC50 [3]: 80 nM

Structure (SMILES): Cc1c(C(=O)C(N)=O)c2c(OCC(=O)O)cccc2n1Cc1ccc(-c2ccccc2)cc1 [ILY-V-3]
IC50 [1, 4]: 1260 nM
IC50 [2, 5]: 770 nM
IC50 [3]: 210 nM

Structure (SMILES): Cc1c(C(=O)C(N)=O)c2c(OCC(=O)O)cccc2n1Cc1ccc2ccccc2c1 [ILY-V-9]
IC50 [1, 4]: 2110 nM
IC50 [2, 5]: 710 nM
IC50 [3]: 60 nM

Structure (SMILES): Cc1c(C(=O)C(N)=O)c2c(OC(C(=O)O)C(C)C)cccc2n1Cc1ccccc1 (centres unmarked) [ILY-IV-22, 2-(3-Aminooxalyl-1-benzyl-2-methyl-1H-indol-4-yloxy)-3-methyl-butyric acid]
IC50 [1, 4]: 70 nM
IC50 [2, 5]: < 20 nM
IC50 [3]: < 20 nM

Structure (SMILES): Cc1c(C(=O)C(N)=O)c2c(OCC(=O)O)cccc2n1CCCCCCCCSCCCCSCCCCCCCCn1c(C)c(C(=O)C(N)=O)c2c(OCC(=O)O)cccc21 [ILY-V-23, 2,2′-(1,1′-(8,8′-(butane-1,4-diylbis(sulfanediyl))bis(octane-8,1-diyl))bis(3-(2-amino-2-oxoacetyl)-2-methyl-1H-indole-4,1-diyl))bis(oxy)diacetic acid]
IC50 [1, 4]: 2160 nM
IC50 [2, 5]: 550 nM
IC50 [3]: 1120 nM

Structure (SMILES): Cc1c(C(=O)C(N)=O)c2c(OC(CC(C)C)C(=O)O)cccc2n1Cc1ccccc1 (centres unmarked) [ILY-IV-47, 2-(3-Aminooxalyl-1-benzyl-2-methyl-1H-indol-4-yloxy)-4-methyl-pentanoic acid]
IC50 [1, 4]: 2940 nM
IC50 [2, 5]: 2430 nM
IC50 [3]: 20 nM

Structure (SMILES): Cc1c(C(=O)C(N)=O)c2c(OCC(=O)O)cccc2n1CCCCCCCCCCCCOc1ccccc1OCCCCCCCCCCCCn1c(C)c(C(=O)C(N)=O)c2c(OCC(=O)O)cccc21 [ILY-V-27, [3-Aminooxalyl-1-(12-{2-[12-(3-aminooxalyl-4-carboxymethoxy-2-methyl-indol-1-yl)-dodecyloxy]-phenoxy}-dodecyl)-2-methyl-1H-indol-4-yloxy]-acetic acid]
IC50 [1, 4]: 150 nM
IC50 [2, 5]: 200 nM
IC50 [3]: 150 nM

Structure (SMILES): Cc1ccc(S(=O)(=O)NC(=O)COc2cccc3c2c(C(=O)C(N)=O)c(C)n3Cc2ccccc2)cc1 [ILY-IV-26, 1-Benzyl-2-methyl-4-p-toluenesulfonamidoylmethyloxy-1H-indol-3-glyoxylamide]
IC50 [1, 4]: > 5000 nM
IC50 [2, 5]: 3090 nM
IC50 [3]: 80 nM

Structure (SMILES): CCCCCCCCn1c(C)c(C(=O)C(N)=O)c2c(OCC(=O)O)cccc21 [ILY-V-2]
IC50 [1, 4]: 640 nM
IC50 [2, 5]: 210 nM
IC50 [3]: 30 nM

Structure (SMILES): CCc1c(C(=O)C(N)=O)c2c(OCC(=O)O)nccc2n1Cc1ccccc1 [ILY-II-9, 2-(3-(2-amino-2-oxoacetyl)-1-benzyl-2-ethyl-1H-pyrrolo[3,2-c]pyridin-4-yloxy)acetic acid]
IC50 [1, 4]: 1460 nM
IC50 [2, 5]: 350 nM
IC50 [3]: 30 nM

Structure (SMILES): Cc1c(C(=O)C(N)=O)c2c(OCC(=O)O)ccc(Br)c2n1Cc1ccccc1 [ILY-IV-9, (3-Aminooxalyl-1-benzyl-7-bromo-2-methyl-1H-indol-4-yloxy)-acetic acid]
IC50 [1, 4]: 540 nM
IC50 [2, 5]: 360 nM
IC50 [3]: 40 nM

Structure (SMILES): Cc1c(C(=O)C(N)=O)c2c(OCC(=O)O)ccnc2n1Cc1ccccc1 [ILY-VII-1, 2-(1-Benzyl-4-yloxyacetic acid-2-methyl-1H-pyrrolo[2,3-b]pyridin-3-yl)-2-oxoacetamide]
IC50 [1, 4]: 13700 nM
IC50 [2, 5]: 2140 nM
IC50 [3]: 60 nM

Structure (SMILES): Cc1c(C(=O)C(N)=O)c2c(OCC(=O)O)cccc2n1CCCCCCCCCCCCOc1ccc(-c2ccc(OCCCCCCCCCCCCn3c(C)c(C(=O)C(N)=O)c4c(OCC(=O)O)cccc43)cc2)cc1 [ILY-V-36, [3-Aminooxalyl-1-(12-{4′-[12-(3-aminooxalyl-4-carboxymethoxy-2-methyl-indol-1-yl)-dodecyloxy]-biphenyl-4-yloxy}-dodecyl)-2-methyl-1H-indol-4-yloxy]-acetic acid]
IC50 [1, 4]: 1250 nM
IC50 [2, 5]: 920 nM
IC50 [3]: 440 nM

Structure (SMILES): Cc1c(C(=O)C(N)=O)c2c(OC(F)C(N)=O)cccc2n1Cc1ccccc1 (centres unmarked) [ILY-IV-28, 2-(3-Aminooxalyl-1-benzyl-2-methyl-1H-indol-4-yloxy)-2-fluoro-acetamide]
IC50 [1, 4]: 2600 nM
IC50 [2, 5]: 1440 nM
IC50 [3]: 160 nM

Structure (SMILES): Cc1c(C(=O)C(N)=O)c2c(OCC(=O)O)c(Br)ccc2n1Cc1ccccc1 [ILY-IV-3, (3-Aminooxalyl-1-benzyl-5-bromo-2-methyl-1H-indol-4-yloxy)-acetic acid]
inhibition at 15 µM ([1]; read-out: ILYPSA % inhibition at 15 μM hps PLA2, 15 μM, human pancreas secreted PLA2): 35.8%
inhibition at 15 µM ([2]; read-out: ILYPSA % inhibition at 15 μM mps PLA2, 15 μM, mouse pancreas secreted PLA2): 39.8%
IC50 [3]: 5870 nM

Structure (SMILES): Cc1c(C(=O)C(N)=O)c2c(OC(C(=O)O)C(C)C)cccc2n1CCCCCCCCCCCCn1c(C)c(C(=O)C(N)=O)c2c(OC(C(=O)O)C(C)C)cccc21 (centres unmarked) [ILY-V-44, 2-(3-Aminooxalyl-1-{12-[3-aminooxalyl-4-(1-carboxy-2-methyl-propoxy)-2-methyl-indol-1-yl]-dodecyl}-2-methyl-1H-indol-4-yloxy)-3-methyl-butyric acid]
IC50 [1, 4]: 280 nM
IC50 [2, 5]: 480 nM
IC50 [3]: 50 nM

Structure (SMILES): Cc1c(C(=O)C(N)=O)c2c(OCC(=O)O)nccc2n1Cc1ccccc1-c1ccccc1 [ILY-II-4, (3-Aminooxalyl-1-biphenyl-2-ylmethyl-2-methyl-1H-pyrrolo[3,2-c]pyridin-4-yloxy)-acetic acid]
IC50 [1]: 80 nM
IC50 [2]: 70 nM
IC50 [3]: < 20 nM

IC50 [1, 4]: 1320 nM
IC50 [2, 5]: 890 nM
Structure (SMILES): Cc1c(CC(N)=O)c2c(OCC(=O)O)cccc2n1Cc1ccccc1 [ILY-III-22, (1-Benzyl-3-carbamoylmethyl-2-methyl-1H-indol-4-yloxy)-acetic acid]

— US20070135383A1, “Phospholipase inhibitors, including multi-valent phospholipase inhibitors, and use thereof, including as lumen-localized phospholipase inhibitors” (priority 2005, published 2007)
